Data as given in PMC8962522, “Direct interaction of TrkA/CD44v3 is essential for NGF-promoted aggressiveness of breast cancer cells” (Journal of Experimental & Clinical Cancer Research : CR, 2022).

Legend:
[1] = cited from earlier work
Description: With more functions than those of a membrane receptor, CD44 is a multifunctional platform implicated in numerous physiological and disease mechanisms. In cancer, it has many functions (e.g., adhesion, migration/invasion, growth, differentiation, and resistance to therapies) depending on the splice variant expressed, corresponding ligands, posttranscriptional modifications, and association with growth factors and different membrane proteins.

[2] = system: CD44v3 in MDA-MB-231 cells; assay: Immunofluorescence, membrane CD44v3; format: cell-based; settings: MDA-MB-231, immunofluorescence/confocal, NGF
Description: The CD44v3- and CD44v6-containing isoforms expressing respectively exon 8 and 11(Fig. 1A) can interact with growth factor receptors. Using COS-7 cells with low CD44 and TrkA expression (Supplementary Fig. 1A-D), we differentially expressed TrkA and CD44s or a CD44 variant, either CD44v3 or CD44v6 (Fig. 1B, supplementary Fig. 2). […] Additionally, we evaluated the expression of TrkA and CD44v3 at the membrane level or in cells by immunofluorescence in MDA-MB-231 cells.
Supplementary file 13046_2022_2314_MOESM3_ESM.pdf: Additional file 3: Supplementary Figure 1. Validation of the ectopic expression of CD44 and/or TrkA in COS-7 cells. The expression of all CD44 isoforms (A), CD44 variant 3 (B), CD44 variant 6 (C) and TrkA ([…]; D) was evaluated by RT–qPCR (normalized using PUM-1). No expression of CD44, CD44 variants [3 or 6] or TrkA was detected in COS-7 cells (A-D) compared with that in cells transfected with the expression plasmid carrying each protein. […] Quantification of the PLA results was performed using ImageJ software (30 randomly chosen fields per condition of three different experiments). […] CD44v3 and CD44v6 levels at the plasma membrane were assessed by flow cytometry (A-D). The plasma membrane and total TrkA and CD44v3 levels were also quantified by confocal microscopy (E-H). […] The CD44v3/NGF interaction was evaluated using microscale thermophoresis (MST). […]

Q: With “NGF: recombinant human β-NGF (Alomone Labs, Israel)” as the substance, how does the “binding to heparin (in words)” value [1] read?
A: does not bind heparin

Q: What about the “level of CD44v3 at the membrane (in words)” value [2] of the same substance?
A: increased at the membrane until 15 min of NGF treatment and then decreased
